Assays:
Assay in all cases: relative viability (nuclei count vs DMSO), 5 days (fraction); higher = more cells survive
Crizotinib + Trametinib = compound: C[C@@H](Oc1cc(-c2cnn(C3CCNCC3)c2)cnc1N)c1c(Cl)ccc(F)c1Cl [Crizotinib] + CC(=O)Nc1cccc(-n2c(=O)n(C3CC3)c(=O)c3c(Nc4ccc(I)cc4F)n(C)c(=O)c(C)c32)c1 [Trametinib] (partner 0.02 µM)
Method in brief: (§1)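 After 5 days of treatment, lung cancer cells in 1536-well plates were fixed and stained in a single step (final 0.05% Triton X-100, 1% formaldehyde, 1 ug/ml Hoechst) and their nuclei counted on 4× images. Treatment had been applied by pin tool the day after seeding as one drug alone or as a fixed anchor-drug dose with five library-drug doses (not always all listed) in √10 steps. Relative viability is the nuclei count of treated wells divided by that of vehicle wells, and values are medians of duplicate plates.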

Olaparib + OSI-027 = compound: O=C(c1cc(Cc2n[nH]c(=O)c3ccccc23)ccc1F)N1CCN(C(=O)C2CC2)CC1 [Olaparib] + COc1cccc2cc(-c3nc([C@H]4CC[C@H](C(=O)O)CC4)n4ncnc(N)c34)[nH]c12 [OSI-027] (partner 0.5 µM)
Method in brief: as §1

Crizotinib + Phenformin = compound: C[C@@H](Oc1cc(-c2cnn(C3CCNCC3)c2)cnc1N)c1c(Cl)ccc(F)c1Cl [Crizotinib] + N=C(N)NC(=N)NCCc1ccccc1 [Phenformin] (partner 250 µM)
Method in brief: as §1

Carfilzomib + Pictilisib = compound: CC(C)C[C@H](NC(=O)[C@H](CCc1ccccc1)NC(=O)CN1CCOCC1)C(=O)N[C@@H](Cc1ccccc1)C(=O)N[C@@H](CC(C)C)C(=O)[C@@]1(C)CO1 [Carfilzomib] + CS(=O)(=O)N1CCN(Cc2cc3nc(-c4cccc5[nH]ncc45)nc(N4CCOCC4)c3s2)CC1 [Pictilisib] (partner 1 µM)
Method in brief: as §1

| Cell Line | relative viability (Crizotinib + Trametinib; first compound 0.01 µM) | relative viability (Crizotinib + Trametinib; first compound 0.03162 µM) | relative viability (Crizotinib + Trametinib; first compound 0.1 µM) | relative viability (Crizotinib + Trametinib; first compound 0.3162 µM) | relative viability (Crizotinib + Trametinib; first compound 1 µM) | relative viability (Olaparib + OSI-027; first compound 0.08 µM) | relative viability (Olaparib + OSI-027; first compound 0.253 µM) | relative viability (Olaparib + OSI-027; first compound 2.53 µM) | relative viability (Olaparib + OSI-027; first compound 8 µM) | relative viability (Crizotinib + Phenformin; first compound 0.01 µM) | relative viability (Crizotinib + Phenformin; first compound 0.03162 µM) | relative viability (Crizotinib + Phenformin; first compound 0.1 µM) | relative viability (Crizotinib + Phenformin; first compound 0.3162 µM) | relative viability (Crizotinib + Phenformin; first compound 1 µM) | relative viability (Carfilzomib + Pictilisib; first compound 0.001 µM) | relative viability (Carfilzomib + Pictilisib; first compound 0.003162 µM) | relative viability (Carfilzomib + Pictilisib; first compound 0.01 µM) | relative viability (Carfilzomib + Pictilisib; first compound 0.03162 µM) | relative viability (Carfilzomib + Pictilisib; first compound 0.1 µM) |
| --- | --- | --- | --- | --- | --- | --- | --- | --- | --- | --- | --- | --- | --- | --- | --- | --- | --- | --- | --- |
| 201T | 0.678 | 0.706 | 0.747 | 0.72 | 0.754 | 0.724 | 0.611 | 0.699 | 0.764 | 0.42 | 0.48 | 0.455 | 0.445 | 0.726 | 0.67 | 0.659 | 0.668 | 0.727 | 0.666 |
| A549 |  |  |  |  |  |  |  |  |  | 0.165 | 0.136 | 0.167 | 0.141 | 0.172 | 0.525 | 0.472 | 0.44 | 0.118 | 0.0573 |
| A-427 | 0.717 | 0.771 | 0.724 |  | 0.78 | 0.558 | 0.469 | 0.396 | 0.389 | 0.303 | 0.349 | 0.419 |  | 0.28 | 0.776 | 0.734 | 0.632 | 0.296 | 0.092 |
| ABC-1 |  |  |  |  |  | 0.801 | 0.52 | 0.488 | 0.55 |  | 0.22 | 0.211 | 0.238 | 0.269 | 0.691 | 0.471 | 0.237 | 0.249 | 0.216 |
| BEN |  | 0.982 | 0.948 | 1.15 | 1.17 |  | 0.268 | 0.301 | 0.296 | 0.259 | 0.253 | 0.256 | 0.235 | 0.257 | 0.635 | 0.679 | 0.587 | 0.523 | 0.249 |
| CAL-12T | 0.268 | 0.413 | 0.32 | 0.393 | 0.374 | 1.05 | 0.568 | 0.602 | 0.627 | 0.503 | 0.609 | 0.606 |  | 0.558 |  | 0.767 | 0.586 | 0.304 | 0.143 |
| COR-L23 | 0.567 | 0.605 | 0.563 | 0.525 | 0.633 | 0.723 | 0.635 | 0.712 | 0.424 | 0.376 | 0.409 | 0.426 | 0.389 | 0.428 | 0.756 | 0.806 | 0.678 | 0.0485 | 0.0565 |
| COR-L 105 | 0.426 | 0.463 | 0.413 | 0.41 | 0.43 | 0.77 | 0.679 | 0.487 | 0.584 | 0.384 | 0.516 | 0.406 | 0.431 | 0.492 | 0.414 | 0.437 | 0.346 | 0.289 | 0.23 |
| Calu-6 |  |  |  |  |  |  |  |  |  |  |  |  |  |  | 1.01 | 0.97 | 0.798 | 0.108 | 0.0567 |
| ChaGo-K-1 | 0.867 | 0.92 | 0.876 | 0.825 | 0.915 | 0.649 | 0.506 | 0.533 | 0.464 | 0.457 | 0.511 | 0.486 | 0.329 | 0.457 |  | 1.27 | 0.839 | 0.523 | 0.348 |
| EBC-1 |  |  |  |  |  |  |  |  |  |  |  |  |  |  | 0.407 | 0.347 | 0.192 | 0.0926 | 0.117 |
| EKVX | 0.342 | 0.367 | 0.347 | 0.298 | 0.374 | 0.79 | 0.626 | 0.61 | 0.765 | 0.209 | 0.241 | 0.238 | 0.187 | 0.221 | 0.443 | 0.492 | 0.542 | 0.476 | 0.169 |
| EMC-BAC-2 | 0.865 | 0.803 | 0.914 |  | 0.893 | 0.41 | 0.364 | 0.357 | 0.358 | 0.532 | 0.544 | 0.569 | 0.253 | 0.473 | 0.503 | 0.612 | 0.586 | 0.574 | 0.258 |
| EPLC-272H | 0.277 | 0.281 | 0.299 |  | 0.307 | 0.334 | 0.286 | 0.31 | 0.299 | 0.261 | 0.283 | 0.302 | 0.29 | 0.39 | 0.188 | 0.363 | 0.322 | 0.0934 | 0.0877 |
| H3255 | 0.557 | 0.666 | 0.602 | 0.652 | 0.479 | 0.591 | 0.56 | 0.764 | 0.548 | 0.348 | 0.424 | 0.385 | 0.327 | 0.334 | 0.433 | 0.52 | 0.426 | 0.423 | 0.177 |
| HARA | 0.646 | 0.525 | 0.958 | 0.976 | 0.564 | 0.68 | 0.446 | 0.47 | 0.438 | 0.468 | 0.501 | 0.462 |  | 0.47 | 0.422 | 0.609 | 0.385 | 0.0609 | 0.0598 |

Reference: the supplement of paper PMC10307832
